Laboratory results taken from patent US9089640B2, “Apparatus and kit for encapsulating at least one compound for therapeutic and/or diagnostic use in erythrocytes” (ERYDEL S.p.A., priority 2010, dated 2015).

Test system: autologous IgGs
Test: Recognition of treated erythrocytes by autologous IgGs (targeting to macrophages)
Type: cell-based
Description: The targeting to macrophages of erythrocytes containing drugs and/or contrast means can be achieved by the apparatus shown in the figure following a procedure similar to that used in example 1. When fludarabine was used as an encapsulating agent, a final concentration of 0.8 mM was obtained. The erythrocytes treated in this way were recognised by autologous IgGs in percentages over 80% the total number of processed cells.

## Nc1nc(F)nc2c1ncn2[C@@H]1O[C@H](CO)[C@@H](O)[C@@H]1O [fludarabine]
  Treated erythrocytes recognised by autologous IgGs, percentage of total number of processed cells: over 80%
